Measured values reported in US5120828A, “Synthetic polypeptide with laminin activity” (Regents of the University of Minnesota, priority 1989, dated 1992).

Target: T1, peptide AC15 (Mus musculus, UniProt P02469)
T1 construct: residues 202-218 from the B1 chain of laminin; The single letter amino acid code for this polypeptide is RIQNLLKITNLRIKFVK; made in house; host or cells: chemical solid-phase (Merrifield) synthesis, no expression host
Test: Heparin/peptide interaction specificity: competition of 3H-heparin binding to coated peptide AC15 by glycosaminoglycans
Details: 3 μg per well of peptide AC15 coated; various amounts of non-radioactive glycosaminoglycan; 2 h, 37° C.; FIG. 9
Procedure: To check whether charge was the main factor in the interaction between heparin and peptide AC15 or whether the heparin structure was also critical to this interaction, heparin along with one other sulfated glucosaminoglycan, chondroitin sulfate were used in competition experiments. A standard amount of 3 μg per well of peptide AC15 was coated on 96-well plates as described above. Wells were treated for two hours with 2 mg/ml BSA in wash buffer. Then, a final volume of 50 μl was added to each well, containing a standard amount of ^3 H-heparin (5,000 cpm per well) and various amounts of non-radioactive heparin, and chondroitin sulfate. After incubating for two hours at 37° C., the wells were washed and radioactivity was counted as described above in Example 1.

heparin
competition for the binding of tritiated heparin to peptide AC15: able to compete for the binding of tritiated heparin to peptide AC15 at very low concentrations

chondroitin sulfate
competition for the binding of tritiated heparin to peptide AC15: cannot mimic this effect even at very high concentrations
